Source: patent US10624871B2, “Bismuth(III) compounds and methods thereof” (priority 2016, dated 2020)

How the values were obtained:
[1] = biological target: T1, NDM-1 (Klebsiella pneumoniae, UniProt C7C422); assay: IC50 enzyme inhibition assay, MER hydrolysis; format: biochemical; settings: Zn2-NDM-1 50 nM, 1 h preincubation at 25° C., 100 μM MER
Description: (§1) […]. The initial rate were extracted and calculated from each reaction curves.

[2] = biological target: VIM-2 (Escherichia coli, UniProt Q5U7L7); assay: IC50 enzyme inhibition assay, MER hydrolysis; format: biochemical; settings: Zn2-VIM-2, 1 h preincubation at 25° C., 100 μM MER
Description: as §1

[3] = biological target: T1, NDM-1; assay: Zn(II) supplementation assay; format: biochemical; settings: Bi-NDM-1 from apo-NDM-1 and CBS; ZnSO4 up to 2 molar equivalents; apo-NDM-1 + 2 eq Zn = 1
Protocol: To investigate whether enzyme inhibition can be reversed, enzyme activities of apo-NDM-1 and Bi-NDM-1 were compared with the supplementation of Zn(II). Bi-NDM-1 (50 nM) was prepared by pre-incubation of apo-NDM-1 with CBS for 2 h at 25° C. and the bound Bi was verified using ICP-MS. The above protein solutions were mixed with ZnSO4 at concentration up to 2 molar equivalents to NDM-1 and 100 μM MER. The change in absorbance at 300 nm was monitored in a 1 cm quartz cuvette using Varian Cary® 50 UV-visible spectrophotometer at 25° C. for reaction rate calculations. Reaction rate of apo-NDM-1 with addition of 2 molar equivalents of ZnSO4 was normalized to be 1. […]. […] To confirm this, the metal contents of both Zn(II) and Bi(III) were monitored by inductively-coupled plasma mass spectrometry (ICP-MS) as described below.

[4] = system: C. freundii (NDM-1+); assay: Microdilution MIC and MBC assay, FICI; format: cell-based; settings: Bi(III) compound at 32 μg mL^−1, C. feudii (NDM-1+)
[5] = system: E. coli (VIM-2+); assay: Microdilution MIC and MBC assay, FICI; format: cell-based; settings: Bi(III) compound at 32 μg mL−1, E. coli (VIM-2+)
[6] = system: E. coli (NDM-1+); assay: Time kill assay; format: cell-based; settings: combination 16 μg mL^−1 MER and 32 μg mL−1 CBS, endpoint 24 hrs
Protocol: Time kill assay was used to further explore the synergy between MER and Bi(III) compounds which were represented by CBS herein. In a typical assay, the concentrations of the compounds used in this test represent as follows: 16 μg mL^−1 MER, 32 μg mL−1 CBS. Bacteria were cultured for overnight and diluted 1:250 into LB broth at 37° C. for 3 hrs to reach log phase. The initial bacterial concentration was adjusted to ˜10^7 CFU mL^−1 according to standard curve. Tested compounds either alone or in combination was added to 20 mL of freshly prepared bacterial solution in a 50 ml tube, and incubate at 37° C. LB broth with no compounds served as a positive control. Aliquots of […] suspension were withdrawn after different time intervals (0, 1, 2, 4, 6, 8, and 24 hrs). Bacterial concentrations were estimated from colony counts by serial dilution in phosphate-buffered saline (PBS) and plating on LB agar. All assays were triplicated and performed three times in different days. Data from three independent experiments were averaged and plotted as log10 CFU mL^−1 versus time (h) for each time point over 24 hrs as shown in FIG. 12.

[7] = system: E. coli (NDM-1+); assay: In vitro cell infection assay in MDCK cells; format: cell-based
Protocol: To further evaluate the antimicrobial efficacy of CBS in combination with MER, we exploited the in vitro bacterial infection model in mammalian cell. Typically, MDCK cells were cultured in minimum essential Media (MEM) supplemented with fetal bovine serum (FBS, 10%) and grown at 37° C. in the 5% CO2 humidified atmosphere for three days. The MDCK cells were then washed three times with phosphate buffer saline (PBS) solution, liberated with trypsin-EDTA (0.25%) and re-suspended by culture medium. About 500 μL of re-suspended cells were seeded in 24-well plates and incubated as described above for 48 hrs to ensure confluency, resulting in about 1.0×10^5 cells per well by typan blue assay. The freshly grown logarithmic E. coli (NDM-1^+) bacterial cells were washed with PBS for three times and re-suspended in MEM/10% FBS. The density was adjusted to 2×10^7 CFU mL^−1. Then 500 μL of bacterial suspension was added to each well and substituted for the previous MDCK culture medium. […]
For those cell-invaded bacteria experiments, the infected cells were incubated in culture medium supplemented with 100 μg mL^−1 ciprofloxacin for 1 h to remove extracellular bacteria. […] The assay was performed in triplicate, repeated three times and the results were expressed as average ±SD.

T1 sequence (C7C422 whole entry, looked up): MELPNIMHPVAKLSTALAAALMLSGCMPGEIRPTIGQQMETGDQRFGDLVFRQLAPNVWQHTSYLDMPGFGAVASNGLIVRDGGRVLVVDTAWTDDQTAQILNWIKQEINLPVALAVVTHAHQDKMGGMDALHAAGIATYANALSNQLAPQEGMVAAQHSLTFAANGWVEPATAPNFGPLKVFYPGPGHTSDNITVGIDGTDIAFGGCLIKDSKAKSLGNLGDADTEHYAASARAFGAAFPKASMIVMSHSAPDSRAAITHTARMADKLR

O=C([O-])CC([O-])(CC(=O)[O-])C(=O)[O-].O=C([O-])CC([O-])(CC(=O)[O-])C(=O)[O-].[Bi+3].[Bi+3].[K+] [Complex 10, colloidal bismuth subcitrate] was tested. Which IC50 [1] did it give?
The IC50 was 5.83 ± 0.53 µM.

And the IC50 [2]?
Its IC50 is 44.5 ± 3.94 µM.

What about the “enzyme activity restored upon supplementation of Zn(II) to Bi-NDM-1” value [3] of the same compound?
The value was 25%.

And the “MBC of MER with Bi(III) compound” value [4]?
The value was 1 µg/mL.

And the “MIC of MER with Bi(III) compound” value [4]?
The value was 0.5 µg/mL.

And the “MBC of MER with Bi(III) compound” value [5]?
Its value is 1 µg/mL.

And the “MIC of MER with Bi(III) compound” value [5]?
The value was 0.5 µg/mL.

And the “lowering of bacteria density versus single components” value [6]?
The value was “more than 1000 fold”.

And the “lowering of intracellular bacterial density compared with mere MER, cell-invaded model” value ([7]; MER (2×MIC) and CBS)?
Its value is 9.22 fold.

What about the “bacterial load, cell-associated model” value ([7]; MER in the presence of CBS (32 μg mL^−1)) of the same compound?
The value was ≤ 10^4 CFU.
